Among the data in ChEMBL document CHEMBL5550160, “Leveraging a rationally designed veliparib-based anilide eliciting anti-leukemic effects for the design of pH-responsive polymer nanoformulation” (Eur J Med Chem, 2024) are Activity and IC50 values, retold here.

Assay [1] deals with Histone deacetylase 4 (Homo sapiens) (UniProt P56524). Briefly: Inhibition of HDAC4 (unknown origin) assessed as residual activity at 5.08 x 10^-10M (reference value: 98.90%). To be noted: dose 5.08 10^-10M.
Assay [2] addresses T1, Protein deacetylase HDAC6 (Homo sapiens) (UniProt Q9UBN7).
T1 sequence (whole entry): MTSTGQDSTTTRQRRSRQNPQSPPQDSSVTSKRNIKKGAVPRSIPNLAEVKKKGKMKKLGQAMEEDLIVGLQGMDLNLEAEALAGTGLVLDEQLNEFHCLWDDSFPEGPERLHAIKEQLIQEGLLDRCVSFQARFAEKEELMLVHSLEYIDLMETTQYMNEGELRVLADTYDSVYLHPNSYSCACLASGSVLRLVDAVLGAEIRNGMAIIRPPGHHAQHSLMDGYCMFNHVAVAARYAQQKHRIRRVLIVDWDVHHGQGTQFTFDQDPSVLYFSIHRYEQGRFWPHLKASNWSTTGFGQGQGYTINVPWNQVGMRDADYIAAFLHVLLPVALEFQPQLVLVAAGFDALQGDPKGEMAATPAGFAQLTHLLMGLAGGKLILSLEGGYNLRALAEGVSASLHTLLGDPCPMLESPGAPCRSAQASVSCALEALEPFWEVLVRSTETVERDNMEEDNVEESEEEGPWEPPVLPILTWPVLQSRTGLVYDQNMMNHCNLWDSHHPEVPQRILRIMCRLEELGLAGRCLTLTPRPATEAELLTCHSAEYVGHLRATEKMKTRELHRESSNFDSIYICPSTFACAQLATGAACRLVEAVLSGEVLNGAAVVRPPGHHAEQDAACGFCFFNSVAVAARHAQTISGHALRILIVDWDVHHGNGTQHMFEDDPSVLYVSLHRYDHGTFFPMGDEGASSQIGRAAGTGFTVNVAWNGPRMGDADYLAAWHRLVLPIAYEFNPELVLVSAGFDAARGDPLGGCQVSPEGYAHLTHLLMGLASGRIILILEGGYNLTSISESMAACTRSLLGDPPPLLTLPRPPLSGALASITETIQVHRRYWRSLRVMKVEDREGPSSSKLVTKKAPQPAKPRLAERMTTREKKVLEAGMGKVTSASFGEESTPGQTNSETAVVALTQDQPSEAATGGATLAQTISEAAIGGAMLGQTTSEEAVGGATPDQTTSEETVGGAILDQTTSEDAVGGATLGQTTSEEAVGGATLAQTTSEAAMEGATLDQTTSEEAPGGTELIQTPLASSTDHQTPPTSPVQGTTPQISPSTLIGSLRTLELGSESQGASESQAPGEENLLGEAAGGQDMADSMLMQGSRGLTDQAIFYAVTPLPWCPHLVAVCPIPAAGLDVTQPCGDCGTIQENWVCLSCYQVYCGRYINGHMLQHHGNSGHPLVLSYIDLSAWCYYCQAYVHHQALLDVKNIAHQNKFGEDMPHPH
Description: Inhibition of HDAC6 (unknown origin) using p53 residues 379 to 382 [RHKK(Ac)] as fluorogenic substrate assessed as residual activity at 4.12 x 10^-8M (reference value: 101.06%). The settings on record: dose 4.12 10^-8M.

Assay [3] has as its target T2, Histone deacetylase 7 (Homo sapiens) (UniProt Q8WUI4).
T2 sequence (whole entry): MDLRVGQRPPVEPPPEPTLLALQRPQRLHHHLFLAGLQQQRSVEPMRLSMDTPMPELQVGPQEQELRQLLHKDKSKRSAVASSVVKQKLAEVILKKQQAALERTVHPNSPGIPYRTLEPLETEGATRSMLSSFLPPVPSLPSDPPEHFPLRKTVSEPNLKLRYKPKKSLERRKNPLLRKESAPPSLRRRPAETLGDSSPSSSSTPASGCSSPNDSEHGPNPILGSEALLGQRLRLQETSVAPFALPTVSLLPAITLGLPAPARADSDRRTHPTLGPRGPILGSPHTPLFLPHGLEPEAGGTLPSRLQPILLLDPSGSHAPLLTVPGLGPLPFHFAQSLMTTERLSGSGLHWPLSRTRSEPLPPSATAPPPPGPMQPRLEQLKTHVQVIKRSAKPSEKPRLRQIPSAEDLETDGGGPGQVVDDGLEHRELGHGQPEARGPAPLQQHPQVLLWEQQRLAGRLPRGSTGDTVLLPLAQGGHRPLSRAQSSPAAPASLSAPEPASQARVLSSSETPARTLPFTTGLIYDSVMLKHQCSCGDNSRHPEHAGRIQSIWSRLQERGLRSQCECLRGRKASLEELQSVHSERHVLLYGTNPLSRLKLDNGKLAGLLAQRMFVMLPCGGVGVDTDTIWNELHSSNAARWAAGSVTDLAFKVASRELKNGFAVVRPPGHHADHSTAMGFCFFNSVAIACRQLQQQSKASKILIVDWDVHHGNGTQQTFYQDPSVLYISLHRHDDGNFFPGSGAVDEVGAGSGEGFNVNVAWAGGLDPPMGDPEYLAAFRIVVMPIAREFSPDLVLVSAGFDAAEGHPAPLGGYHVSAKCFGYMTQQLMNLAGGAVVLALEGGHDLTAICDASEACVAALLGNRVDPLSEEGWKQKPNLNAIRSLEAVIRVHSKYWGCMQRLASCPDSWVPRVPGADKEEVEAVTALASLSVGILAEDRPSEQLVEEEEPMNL
Briefly: Inhibition of HDAC7 (unknown origin) assessed as residual activity at 5.08 x 10^-10M (reference value: 102.66%). The settings on record: dose 5.08 10^-10M.

A further assay deals with K562. Briefly: cells. The settings on record: Homo sapiens.
The target in assay [4] is T3, Histone deacetylase 8 (Homo sapiens) (UniProt Q9BY41).
T3 sequence (whole entry): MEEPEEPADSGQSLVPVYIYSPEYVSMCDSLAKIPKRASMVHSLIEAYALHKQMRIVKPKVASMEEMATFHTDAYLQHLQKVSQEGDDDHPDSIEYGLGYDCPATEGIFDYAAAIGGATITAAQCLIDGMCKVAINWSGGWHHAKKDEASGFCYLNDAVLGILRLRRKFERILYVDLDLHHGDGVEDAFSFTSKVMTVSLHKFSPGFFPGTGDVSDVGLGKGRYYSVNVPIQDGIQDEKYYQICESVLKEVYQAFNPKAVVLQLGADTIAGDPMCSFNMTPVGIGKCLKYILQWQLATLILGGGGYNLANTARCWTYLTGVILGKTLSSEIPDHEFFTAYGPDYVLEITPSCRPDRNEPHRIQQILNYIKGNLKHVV
Briefly: Inhibition of HDAC8 (unknown origin) assessed as residual activity at 1 x 10^-5M (reference value: 100%). To be noted: dose 1.0 10^-5M.

Chain of Histone deacetylase 4 (Homo sapiens) (P56524 whole entry): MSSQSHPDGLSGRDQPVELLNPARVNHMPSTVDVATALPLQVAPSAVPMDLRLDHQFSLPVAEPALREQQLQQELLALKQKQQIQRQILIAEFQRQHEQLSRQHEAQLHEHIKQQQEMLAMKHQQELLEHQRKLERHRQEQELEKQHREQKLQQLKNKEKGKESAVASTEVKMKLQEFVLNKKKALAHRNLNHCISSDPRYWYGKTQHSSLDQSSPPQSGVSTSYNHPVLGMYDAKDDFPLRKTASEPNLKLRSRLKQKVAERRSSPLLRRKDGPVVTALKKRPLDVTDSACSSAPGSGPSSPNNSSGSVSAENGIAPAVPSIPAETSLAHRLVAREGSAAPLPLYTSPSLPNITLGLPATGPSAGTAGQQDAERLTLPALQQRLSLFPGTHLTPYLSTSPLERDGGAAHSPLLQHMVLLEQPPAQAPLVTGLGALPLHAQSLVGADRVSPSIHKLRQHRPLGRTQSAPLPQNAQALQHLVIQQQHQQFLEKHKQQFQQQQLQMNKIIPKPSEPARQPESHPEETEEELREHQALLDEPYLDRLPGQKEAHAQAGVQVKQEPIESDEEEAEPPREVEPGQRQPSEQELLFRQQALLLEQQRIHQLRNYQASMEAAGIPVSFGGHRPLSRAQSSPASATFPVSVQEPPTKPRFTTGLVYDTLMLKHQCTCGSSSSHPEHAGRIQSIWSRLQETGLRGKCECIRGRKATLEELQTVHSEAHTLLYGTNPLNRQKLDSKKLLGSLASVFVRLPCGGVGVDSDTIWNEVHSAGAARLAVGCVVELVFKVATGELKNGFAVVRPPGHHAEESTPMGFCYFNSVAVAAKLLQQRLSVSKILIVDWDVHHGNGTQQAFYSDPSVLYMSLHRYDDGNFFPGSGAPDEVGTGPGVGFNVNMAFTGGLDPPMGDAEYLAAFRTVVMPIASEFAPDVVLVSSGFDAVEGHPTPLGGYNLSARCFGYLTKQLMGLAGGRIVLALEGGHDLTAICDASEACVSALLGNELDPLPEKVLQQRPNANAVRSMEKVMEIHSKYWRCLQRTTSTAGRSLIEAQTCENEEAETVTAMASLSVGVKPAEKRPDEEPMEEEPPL
Description for K562: Antiproliferative activity against human K562 cells assessed as inhibition of cell growth by MTT assay

Take `NC(=O)c1cccc2[nH]c(-c3ccc(NCc4ccc(C(=O)Nc5ccccc5N)cc4)cc3)nc12`: the Activity was 96.7% in assay [1], 99.2% in assay [2], 93.4% in assay [3] and 69.5% in assay [4]. In addition, in the assay with K562, the IC50 (in general, the point on the concentration scale where inhibition reaches its midpoint) worked out at 1.21 µM.
